“And” between values parts separate entries of the source, which are not always exact repeats. Equal entries are not always repeated. “Also recorded” adds a separate entry of the source. Where two headings read alike, the source gives them in different places.
Columns and labels:
[1] = Solubility of potassium naphthalenecarboxylates in pure water and in aqueous K4 XA solution (Table 1); assay type: physicochemical; details: 30% aqueous k4xa
From the text: Generally, alkali metal naphthalenecarboxylates, taken individually, are easily soluble in a sufficient amount of water.

[2] = Solubility of potassium salts in water/methanol mixtures at 30°C (Table 4); assay type: physicochemical
Solubility in words = assay type: physicochemical; details: for Solubility in aqueous medium: aqueous medium (acid precipitation / disproportionation)
[3] = Solubility of K4 XA in aqueous potassium carbonate (Table 3); assay type: physicochemical; details: water
Thermal stability = assay type: physicochemical
[4] = 30°C
[5] = Stability in water / acid; assay type: physicochemical

With `O=C([O-])c1ccc2cc(C(=O)[O-])ccc2c1.[K+].[K+]` as the molecule, how does the “Solubility in 100 g of a 30% by weight aqueous solution of tetrapotassium 1,3,5,7-naphthalenetetracarboxylate” value [1] read?
The value was 1.0 g.

And the “Change of solubility with increasing methanol concentration” value [2]?
Its value is “decrease with higher methanol concentrations but not to such a great extent as in the case of K4 XA”.

And the “Amount of solute dissolved in 100 g of a mixture of water and methanol” value (“Amount of solute dissolved” for short) ([2]; 30°C, methanol 40 wt. %)?
The value was 8.5 g.

What about the “Amount of solute dissolved” value ([2]; 30°C, methanol 60 wt. %) of the same molecule?
The value was 3.6 g.

And the “Amount of solute dissolved” value ([2]; 30°C, methanol 80 wt. %)?
Its value is 0.88 g.

And the “Amount of solute dissolved” value ([2]; 30°C, methanol 100 wt. %)?
Its value is 0.17 g.

What about the “Amount of solute dissolved” value ([2]; water) of the same molecule?
Its value is 32 g.

For `O=C(O)c1cc(C(=O)O)c2cc(C(=O)O)cc(C(=O)[O-])c2c1.[K+]`, which Solubility in water (Solubility in words) is on record?
Its Solubility in water is “difficultly soluble”.

For `O=C([O-])c1ccc2ccccc2c1.[K+]`, which “Solubility in 100 g of a 30% by weight aqueous solution of tetrapotassium 1,3,5,7-naphthalenetetracarboxylate” value [1] is on record?
Its value is 0.3 g.

What about the “Change of solubility with increasing methanol concentration” value [2] of the same molecule?
Its value is “decrease with higher methanol concentrations but not to such a great extent as in the case of K4 XA”.

And the “Amount of solute dissolved” value ([2]; 30°C, methanol 40 wt. %)?
Its value is 45 g.

And the “Amount of solute dissolved” value ([2]; 30°C, methanol 60 wt. %)?
Its value is 30 g.

And the “Amount of solute dissolved” value ([2]; 30°C, methanol 80 wt. %)?
Its value is 19 g.

What about the “Amount of solute dissolved” value ([2]; 30°C, methanol 100 wt. %) of the same molecule?
Its value is 9.3 g.

And the “Amount of solute dissolved” value ([2]; water)?
Its value is 80 g.

Which “Solubility (grams of the potassium salt dissolved in 100 g of solvent)” value [3] does the source give for `O=C([O-])c1cc(C(=O)[O-])c2cc(C(=O)[O-])cc(C(=O)[O-])c2c1.[K+].[K+].[K+].[K+]` here?
Its value is 57.0 g and 48.8 g.

And the “Change of solubility with increasing methanol concentration” value [2]?
The value was “decreases abruptly”.

And the Solubility in methanol (Solubility in words)?
Its Solubility in methanol is “slightly soluble”.

What about the Solubility in water (Solubility in words) of the same molecule?
The Solubility in water was “very high; also recorded: Readily soluble”.

And the Thermal stability (Thermal stability)?
Its Thermal stability is “almost no change occurred, but the product was stable”.

And the “Amount of tetrapotassium salt dissolved in 100 g of a mixture of water and methanol” value (shortened to “Amount of tetrapotassium salt dissolved”) ([4]; methanol 40%, K2CO3 0%)?
Its value is 9.0 g.

What about the “Amount of tetrapotassium salt dissolved” value ([4]; methanol 40%, K2CO3 10%) of the same molecule?
Its value is 3.8 g.

And the “Amount of tetrapotassium salt dissolved” value ([4]; methanol 40%, K2CO3 20%)?
Its value is 1.0 g.

And the “Amount of tetrapotassium salt dissolved” value ([4]; methanol 40%, K2CO3 30%)?
Its value is 0.2 g.

What about the “Amount of tetrapotassium salt dissolved” value ([4]; methanol 60%, K2CO3 0%) of the same molecule?
Its value is 1.7 g.

And the “Amount of tetrapotassium salt dissolved” value ([4]; methanol 60%, K2CO3 10%)?
The value was 0.1 g.

What about the “Amount of tetrapotassium salt dissolved” value ([4]; methanol 80%, K2CO3 0%) of the same molecule?
Its value is 0.13 g.

And the “Amount of tetrapotassium salt dissolved” value ([4]; methanol 80%, K2CO3 3%)?
Its value is less than 0.01 g.

For `O=C([O-])c1cc(C(=O)[O-])c2cc(C(=O)O)cc(C(=O)[O-])c2c1.[K+].[K+].[K+]`, which Stability in water [5] is on record?
Its Stability in water is “Easily decomposable”.

With `O=C(O)c1cc(C(=O)O)c2cc(C(=O)O)cc(C(=O)O)c2c1` [1,3,5,7-naphthalenetetracarboxylic acid] as the molecule, how does the Solubility in alcohols (Solubility in words; alcohols) read?
The Solubility in alcohols was “Insoluble”.

And the “Solubility in aqueous medium” value (Solubility in words)?
The value was “very low solubility”.

What about the “Solubility in aqueous medium” value (Solubility in words; listed as H4 XA) of the same molecule?
Its value is “almost insoluble”.

And the Solubility in benzene (Solubility in words)?
Its Solubility in benzene is “Insoluble”.

And the “Solubility in ether(s)” value (Solubility in words)?
The value was “Insoluble”.

What about the “Solubility in various solvents” value (Solubility in words; various solvents) of the same molecule?
The value was “very low solubility”.

What about the Solubility in water (Solubility in words; water) of the same molecule?
The Solubility in water was “Insoluble”.

What about the Thermal stability (Thermal stability; high temperatures (melting point above 300°C)) of the same molecule?
Its Thermal stability is “decomposed”.

For `O.O.O=C([O-])c1cc(C(=O)[O-])c2cc(C(=O)[O-])cc(C(=O)[O-])c2c1.[K+].[K+].[K+].[K+]` [Tetrapotassium 1,3,5,7-naphthalenetetracarboxylate dihydrate], which “Amount of solute dissolved” value ([2]; 30°C, methanol 0 wt. %) is on record?
Its value is 45 g.

What about the “Amount of solute dissolved” value ([2]; 30°C, methanol 40 wt. %) of the same molecule?
The value was 9 g.

And the “Amount of solute dissolved” value ([2]; 30°C, methanol 60 wt. %)?
Its value is 1.7 g.

And the “Amount of solute dissolved” value ([2]; 30°C, methanol 80 wt. %)?
The value was 0.13 g.

What about the “Amount of solute dissolved” value ([2]; 30°C, methanol 100 wt. %) of the same molecule?
Its value is 0.30 g.

Which results are given for `CCCCOC(=O)c1cc(C(=O)OCCCC)c2cc(C(=O)OCCCC)cc(C(=O)OCCCC)c2c1` [tetra-n-butyl 1,3,5,7-naphthalenetetracarboxylate]?
Solubility in chloroform (Solubility in words): Readily soluble; Solubility in ether(s) (Solubility in words): Readily soluble; Solubility in hot ethanol (Solubility in words; hot ethanol): Readily soluble

For `CCCCCCCCCCCCOC(=O)c1cc(C(=O)OCCCCCCCCCCCC)c2cc(C(=O)OCCCCCCCCCCCC)cc(C(=O)OCCCCCCCCCCCC)c2c1` [tetra-n-dodecyl 1,3,5,7-naphthalenetetracarboxylate], which Solubility in acetone (Solubility in words; acetone) is on record?
The Solubility in acetone was “Readily soluble”.

And the Solubility in benzene (Solubility in words)?
Its Solubility in benzene is “Readily soluble”.

What about the Solubility in chloroform (Solubility in words) of the same molecule?
Its Solubility in chloroform is “Readily soluble”.

And the “Solubility in ether(s)” value (Solubility in words)?
Its value is “Readily soluble”.

Which Thermal stability (Thermal stability; around 400°C) does the source give for `O=C([O-])c1cc(C(=O)[O-])c2cc(C(=O)[O-])cc(C(=O)[O-])c2c1.[Na+].[Na+].[Na+].[Na+]` [tetrasodium 1,3,5,7-naphthalenetetracarboxylate] here?
The Thermal stability was “stable”.

Reference: patent US3954840A, “1,3,5,7-Naphthalenetetracarboxylic acids and process for preparation thereof” (Teijin Ltd., priority 1973, dated 1976)
